Data on 20 compounds can be found in patent US11142515B2, “Pyrazolyl-ureas as kinase inhibitors” (RESPIVERT LIMITED, priority 2014, dated 2021).

The target of assay [1] is T1, p38 MAPKα isoform (MAPK14) (Homo sapiens, UniProt Q16539).
T1 construct: purchased Life Technologies
Put plainly: p38 MAPKα enzyme inhibition (Z-LYTE FRET). The assay is classed as biochemical. Conditions: Table 2B, unit inferred; read-out: p38 MAPKα (Enzyme Profile). In a few lines:
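Activity was measured indirectly as phosphorylation of a MAPKAP-K2-derived FRET peptide. Enzyme (added at 40 ng/mL) was preincubated 2 h at RT with compound (added solutions 40–0.0012 μg/mL).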

Another assay addresses T2, p38MAPKγ (MAPK12) (Homo sapiens, UniProt P53778).
T2 construct: purchased Life Technologies
T2 sequence (P53778 1-367): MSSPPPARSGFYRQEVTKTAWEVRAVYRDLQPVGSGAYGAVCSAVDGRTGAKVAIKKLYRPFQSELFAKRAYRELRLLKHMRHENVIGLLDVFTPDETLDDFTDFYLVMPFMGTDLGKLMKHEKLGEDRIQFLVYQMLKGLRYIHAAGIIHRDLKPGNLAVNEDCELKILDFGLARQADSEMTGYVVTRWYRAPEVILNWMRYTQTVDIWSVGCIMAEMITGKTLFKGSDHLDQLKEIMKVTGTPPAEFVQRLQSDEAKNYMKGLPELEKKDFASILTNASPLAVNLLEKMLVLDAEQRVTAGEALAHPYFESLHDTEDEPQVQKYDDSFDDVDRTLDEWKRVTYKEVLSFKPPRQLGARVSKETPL
Put plainly: p38 MAPKγ enzyme inhibition (Z-LYTE FRET). It counts as biochemical. Conditions: Table 2B, unit inferred; read-out: p38 MAPKγ (Enzyme Profile). In a few lines:
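Enzyme (added at 800 ng/mL) was preincubated 2 h at RT with compound (solutions of 40 to 0.0012 μg/mL), then FRET peptide (8 μM) and ATP (400 μM), both as added, were reacted 1 h at RT. Protease development followed for 1 h; phosphorylation was read as the coumarin/fluorescein emission ratio.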

pIC50: −log10 of the molar value.

T1 sequence (Q16539 whole entry, canonical isoform): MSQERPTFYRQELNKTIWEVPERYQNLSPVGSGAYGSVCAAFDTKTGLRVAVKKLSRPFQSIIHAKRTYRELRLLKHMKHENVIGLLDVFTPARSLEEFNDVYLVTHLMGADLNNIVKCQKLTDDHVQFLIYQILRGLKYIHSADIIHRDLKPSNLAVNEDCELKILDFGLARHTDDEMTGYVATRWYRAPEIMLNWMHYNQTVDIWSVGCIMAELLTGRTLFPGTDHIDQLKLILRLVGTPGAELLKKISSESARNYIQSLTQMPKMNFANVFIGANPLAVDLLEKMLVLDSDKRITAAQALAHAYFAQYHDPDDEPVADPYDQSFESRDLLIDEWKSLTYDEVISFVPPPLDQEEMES

On to `Cc1ccc(-n2nc(C(C)(C)C)cc2NC(=O)Nc2ccc(OCc3ccnc(Nc4cnc(C(=O)N5CCNC(=O)CC5)cn4)c3)c3ccccc23)cc1` [Example 241, 1-(3-(tert-butyl)-1-(p-tolyl)-1H-pyrazol-5-yl)-3-(4-((2-((5-(5-oxo-1,4-diazepane-1-carbonyl)pyrazin-2-yl)amino)pyridin-4-yl)methoxy)naphthalen-1-yl)urea], for which the figures for the pIC50 (in assay [1]; on p38MAPKγ (MAPK12)) were 8.47 and 7.32, respectively.

For the compound `Cc1ccc(-n2nc(C(C)(C)C)cc2NC(=O)Nc2ccc(OCc3ccnc(Nc4cnc(C(=O)N5CCS(=O)(=O)CC5)cn4)c3)c3ccccc23)cc1` [Example 243, 1-(3-(tert-butyl)-1-(p-tolyl)-1H-pyrazol-5-yl)-3-(4-((2-((5-(1,1-dioxidothiomor-pholine-4-carbonyl)pyrazin-2-yl)amino)pyridin-4-yl)methoxy)naphthalen-1-yl) urea], the pIC50 was 8.07 in assay [1] and 7.02 on p38MAPKγ (MAPK12).

`COc1cncc(Nc2cc(COc3ccc(NC(=O)Nc4cc(C(C)(C)C)nn4-c4ccc(C)s4)c4ccccc34)ccn2)n1` [Example 109, 1-(3-(tert-butyl)-1-(5-methylthiophen-2-yl)-1H-pyrazol-5-yl)-3-(4-((2-((6-methoxypyrazin-2-yl)amino)pyridin-4-yl)methoxy)naphthalen-1-yl) urea]: the pIC50 in assay [1] was 6.94; on p38MAPKγ (MAPK12) it was 5.88.

As to `COCc1cccc(-n2nc(C(C)(C)C)cc2NC(=O)Nc2ccc(OCc3ccnc(Nc4cnc(C(=O)N5CCN(C)CC5)cn4)c3)c3ccccc23)c1` [Example 269, 1-(3-(tert-butyl)-1-(3-(methoxymethyl)phenyl)-1H-pyrazol-5-yl)-3-(4-((2-((5-(4-methylpiperazine-1-carbonyl)pyrazin-2-yl)amino)pyridin-4-yl)methoxy)naphthalen-1-yl)urea], the pIC50 is greater than 9.40 in assay [1] and 6.86 at p38MAPKγ (MAPK12).

With `Cc1ccc(-n2nc(C(C)(C)C)cc2NC(=O)Nc2ccc(OCc3ccnc(Nc4cnc(C(=O)NCCOC(C)(C)C)cn4)c3)c3ccccc23)cc1` [Example 125, N-(2-(tert-butoxy)ethyl)-5-((4-(((4-(3-(3-(tert-butyl)-1-(p-tolyl)-1H-pyrazol-5-yl)ureido)naphthalen-1-yl)oxy)methyl)pyridin-2-yl)amino)pyrazine-2-carboxamide], the pIC50 in assay [1] is 6.52; on p38MAPKγ (MAPK12) it was less than 4.87.

As to `Cc1ccc(-n2nc(C(C)(C)C)cc2NC(=O)Nc2ccc(OCc3ccnc(Nc4cncc(N)n4)c3)c3ccccc23)cc1` [Example 106, 1-(4-((2-((6-aminopyrazin-2-yl)amino)pyridin-4-yl)methoxy)naphthalen-1-yl)-3-(3-(tert-butyl)-1-(p-tolyl)-1H-pyrazol-5-yl)urea], the pIC50 in assay [1] was 8.47; on p38MAPKγ (MAPK12), 6.40.

On to `Cc1ccc(-n2nc(C(C)(C)C)cc2NC(=O)Nc2ccc(OCc3ccnc(Nc4cncc(C5CC5)n4)c3)c3ccccc23)cc1C` [Example 145, 1-(3-(tert-butyl)-1-(3,4-dimethylphenyl)-1H-pyrazol-5-yl)-3-(4-((2-((6-cyclopropylpyrazin-2-yl)amino)pyridin-4-yl)methoxy)naphthalen-1-yl)urea], for which the pIC50 in assay [1] was 7.37; on p38MAPKγ (MAPK12) it was 6.59.

Turning to `Cc1cccc(-n2nc(C(C)(C)C)cc2NC(=O)Nc2ccc(OCc3ccnc(Nc4cnc(C(=O)NCCCO)cn4)c3)c3ccccc23)c1` [Example 231, 5-((4-(((4-(3-(3-(tert-butyl)-1-(m-tolyl)-1H-pyrazol-5-yl)ureido)naphthalen-1-yl)oxy)methyl)pyridin-2-yl)amino)-N-(3-hydroxypropyl) pyrazine-2-carboxamide], the pIC50 in assay [1] is 7.82; on p38MAPKγ (MAPK12) it was 7.02.

Regarding `COCc1cccc(-n2nc(C(C)(C)C)cc2NC(=O)Nc2ccc(OCc3ccnc(Nc4cnc(C(=O)NCCN5CCOCC5)cn4)c3)c3ccccc23)c1` [Example 270, 5-((4-(((4-(3-(3-(tert-butyl)-1-(3-(methoxymethyl)phenyl)-1H-pyrazol-5-yl)ureido)naphthalen-1-yl)oxy)methyl)pyridin-2-yl)amino)-N-(2-morpholinoethyl) pyrazine-2-carboxamide], the pIC50 is 8.35 in assay [1] and 7.18 at p38MAPKγ (MAPK12).

For the compound `CCc1nc(Nc2cc(COc3ccc(NC(=O)Nc4cc(C(C)(C)C)nn4-c4ccc(C)cc4)c4ccccc34)ccn2)cnc1C` [Example 143, 1-(3-(tert-butyl)-1-(p-tolyl)-1H-pyrazol-5-yl)-3-(4-((2-((6-ethyl-5-methylpyrazin-2-yl)amino)pyridin-4-yl)methoxy)naphthalen-1-yl) urea], the values for the pIC50 (in assay [1]; at p38MAPKγ (MAPK12)) were 7.72 and 6.68, respectively.

As for `CCc1cncc(Nc2cc(COc3ccc(NC(=O)Nc4cc(C(C)(C)C)nn4-c4cc(C)cc(C)c4)c4ccccc34)ccn2)n1` [Example 212, 1-(3-(tert-butyl)-1-(3,5-dimethylphenyl)-1H-pyrazol-5-yl)-3-(4-((2-((6-ethyl-pyrazin-2-yl)amino)pyridin-4-yl)methoxy)naphthalen-1-yl)urea], the values for the pIC50 (in assay [1]; on p38MAPKγ (MAPK12)) were 7.05 and less than 4.81, respectively.

As for `CC(C)(C)c1cc(NC(=O)Nc2ccc(OCc3ccnc(Nc4cnccn4)c3)c3ccccc23)n(-c2cccc(CO)c2)n1` [Example 174, 1-(3-(tert-butyl)-1-(3-(hydroxymethyl)phenyl)-1H-pyrazol-5-yl)-3-(4-((2-(pyrazin-2-ylamino)pyridin-4-yl)methoxy)naphthalen-1-yl)urea], the pIC50 was 8.11 in assay [1] and 7.25 on p38MAPKγ (MAPK12).

Turning to `Cc1ccc(-n2nc(C(C)(C)C)cc2NC(=O)Nc2ccc(OCc3ccnc(Nc4cncc(N5CC(O)C5)n4)c3)c3ccccc23)cc1` [Example 123, 1-(3-(tert-butyl)-1-(p-tolyl)-1H-pyrazol-5-yl)-3-(4-((2-((6-(3-hydroxyazetidin-1-yl)pyrazin-2-yl)amino)pyridin-4-yl)methoxy)naphthalen-1-yl)urea], the pIC50 in assay [1] was 7.22; at p38MAPKγ (MAPK12) it was 6.77.

Consider `Cc1ccc(-n2nc(C(C)(C)C)cc2NC(=O)Nc2ccc(OCc3ccnc(Nc4cnc(C(=O)N5CCC5)cn4)c3)c3ccccc23)cc1` [Example 128, 1-(4-((2-((5-(azetidine-1-carbonyl)pyrazin-2-yl)amino)pyridin-4-yl)methoxy)naphthalen-1-yl)-3-(3-(tert-butyl)-1-(p-tolyl)-1H-pyrazol-5-yl)urea], for which the pIC50 in assay [1] is 7.26; at p38MAPKγ (MAPK12), less than 4.83.

`CCCc1cncc(Nc2cc(COc3ccc(NC(=O)Nc4cc(C(C)(C)C)nn4-c4cccc(OC)c4)c4ccccc34)ccn2)n1` [Example 189, 1-(3-(tert-butyl)-1-(3-methoxyphenyl)-1H-pyrazol-5-yl)-3-(4-((2-((6-propyl-pyrazin-2-yl)amino)pyridin-4-yl)methoxy)naphthalen-1-yl)urea]: the results for the pIC50 (in assay [1]; at p38MAPKγ (MAPK12)) were 7.14 and 6.24, respectively.

For the compound `CN(C)c1cncc(Nc2cc(COc3ccc(NC(=O)Nc4cc(C(C)(C)C)nn4-c4ccc(O)cc4)c4ccccc34)ccn2)n1` [Example 115, 1-(3-(tert-butyl)-1-(4-hydroxyphenyl)-1H-pyrazol-5-yl)-3-(4-((2-((6-(dimethyl-amino)pyrazin-2-yl)amino)pyridin-4-yl)methoxy)naphthalen-1-yl)urea], the pIC50 in assay [1] was 8.12; at p38MAPKγ (MAPK12) it was 6.14.

Take `COCCc1cncc(Nc2cc(COc3ccc(NC(=O)Nc4cc(C(C)(C)C)nn4-c4ccc(C)cc4)c4ccccc34)ccn2)n1` [Example 154, 1-(3-(tert-butyl)-1-(p-tolyl)-1H-pyrazol-5-yl)-3-(4-((2-((6-(2-methoxyethyl)pyrazin-2-yl)amino)pyridin-4-yl)methoxy)naphthalen-1-yl)urea]: the pIC50 in assay [1] was 8.00; on p38MAPKγ (MAPK12) it was 7.31.

On to `Cc1ccc(-n2nc(C(C)(C)C)cc2NC(=O)Nc2ccc(OCc3ccnc(Nc4cnc(C(=O)NCCN(C)C)cn4)c3)c3ccccc23)cc1` [Example 268, 5-((4-(((4-(3-(3-(tert-butyl)-1-(p-tolyl)-1H-pyrazol-5-yl)ureido)naphthalen-1-yl)oxy)methyl)pyridin-2-yl)amino)-N-(2-(dimethylamino)ethyl) pyrazine-2-carboxamide], for which the pIC50 in assay [1] was greater than 9.38; on p38MAPKγ (MAPK12), 7.13.

As for `Cc1ccc(-n2nc(C(C)(C)C)cc2NC(=O)Nc2ccc(OCc3ccnc(Nc4cncc(CCCO)n4)c3)c3ccccc23)cc1` [Example 155, 1-(3-(tert-butyl)-1-(p-tolyl)-1H-pyrazol-5-yl)-3-(4-((2-((6-(3-hydroxypropyl)pyrazin-2-yl)amino)pyridin-4-yl)methoxy)naphthalen-1-yl)urea], the pIC50 in assay [1] was 8.05; at p38MAPKγ (MAPK12), 7.51.

For `Cc1ccc(-n2nc(C(C)(C)C)cc2NC(=O)Nc2ccc(OCc3ccnc(Nc4cnc(C(=O)N5CCN(C)CC5)cn4)c3)c3ccccc23)cc1` [Example 136, 1-(3-(tert-butyl)-1-(p-tolyl)-1H-pyrazol-5-yl)-3-(4-((2-((5-(4-methylpiperazine-1-carbonyl)pyrazin-2-yl)amino)pyridin-4-yl)methoxy)naphthalen-1-yl)urea], the pIC50 in assay [1] is greater than 9.39; on p38MAPKγ (MAPK12), 7.39.
